From patent US5151432A, “Substituted amino acid compounds” (Adir et Compagnie, priority 1989, dated 1992) come the findings set out here.

Assay [1] addresses angiotensin I converting enzyme (Homo sapiens, UniProt P12821). As to the kind of experiment: Inhibitory effects on angiotensin I converting enzyme in vitro (conversion of hippurylhistidylleucine to hippuric acid, RYAN method). The assay is classed as biochemical. The note with it: substrate HHL. On the procedure: The activity of the converting enzyme is determined in vitro according to the method of RYAN J. W. et al. (Biochem. J., 1977, 167, 501-504), which utilizes the reaction of conversion of hippurylhistidylleucine (HHL) to hippuric acid. The latter is assayed by liquid scintillation after extraction with ethyl acetate. The inhibitory effect of a compound is determined by incubation at different doses in the presence of the substrate and the converting enzyme. The results are expressed as the IC50 of these compounds.

Assay [2] relates to amnesic scopolamine-treated animals (scopolamine-induced amnesia). The assay is described as follows: Promnesic effects: one trial-passive avoidance test in rats with scopolamine-induced amnesia. Format: in vivo, Male OFA rats (Iffa-Credo). The note with it: for % Retention at 300 sec. / Latency of transit: 24 h retention. The source says:
Male OFA rats (Iffa-Credo) weighting 210-240 g are placed in individual cages under standard environmental conditions. The memory test is a test of one trial-passive avoidance in which experimental amnesia is induced by prior injection of scopolamine.
The apparatus consists of a two-compartment enclosure separated by an automatically closing door.
On the day of conditioning, each animal is placed during 60 seconds in the aversive compartment (white, brightly lit).
Then the door is rapidly open and the rat can freely enter the compartment where it feels secure (black and dark). Transit thereto triggers closing of the door, followed by application to the animal of an unescapable electric shock via the floor of the dark compartment (0.6 mA; 3 seconds).
Memory retention is measured 24 hours later under the same conditions. For this purpose, the latency of transit to the black compartment is measured and the maximum observation time is set at 300 seconds.
The memory enhancing effect of the compounds under investigation is measured in animals receiving scopolamine. These compounds are administered I.P. twice daily during the 3 days preceding the memory test, and then 1 hour before the conditioning test (i.e. 30 minutes before the scopolamine).
The promnesic effects of the compounds increase the transit time relative to the amnesic animals.
The compounds of the present invention are compared to oxiracetam, the nootropic agent most recently proposed in the therapy of memory disorders.

angiotensin I converting enzyme, sequence (P12821 30-1306): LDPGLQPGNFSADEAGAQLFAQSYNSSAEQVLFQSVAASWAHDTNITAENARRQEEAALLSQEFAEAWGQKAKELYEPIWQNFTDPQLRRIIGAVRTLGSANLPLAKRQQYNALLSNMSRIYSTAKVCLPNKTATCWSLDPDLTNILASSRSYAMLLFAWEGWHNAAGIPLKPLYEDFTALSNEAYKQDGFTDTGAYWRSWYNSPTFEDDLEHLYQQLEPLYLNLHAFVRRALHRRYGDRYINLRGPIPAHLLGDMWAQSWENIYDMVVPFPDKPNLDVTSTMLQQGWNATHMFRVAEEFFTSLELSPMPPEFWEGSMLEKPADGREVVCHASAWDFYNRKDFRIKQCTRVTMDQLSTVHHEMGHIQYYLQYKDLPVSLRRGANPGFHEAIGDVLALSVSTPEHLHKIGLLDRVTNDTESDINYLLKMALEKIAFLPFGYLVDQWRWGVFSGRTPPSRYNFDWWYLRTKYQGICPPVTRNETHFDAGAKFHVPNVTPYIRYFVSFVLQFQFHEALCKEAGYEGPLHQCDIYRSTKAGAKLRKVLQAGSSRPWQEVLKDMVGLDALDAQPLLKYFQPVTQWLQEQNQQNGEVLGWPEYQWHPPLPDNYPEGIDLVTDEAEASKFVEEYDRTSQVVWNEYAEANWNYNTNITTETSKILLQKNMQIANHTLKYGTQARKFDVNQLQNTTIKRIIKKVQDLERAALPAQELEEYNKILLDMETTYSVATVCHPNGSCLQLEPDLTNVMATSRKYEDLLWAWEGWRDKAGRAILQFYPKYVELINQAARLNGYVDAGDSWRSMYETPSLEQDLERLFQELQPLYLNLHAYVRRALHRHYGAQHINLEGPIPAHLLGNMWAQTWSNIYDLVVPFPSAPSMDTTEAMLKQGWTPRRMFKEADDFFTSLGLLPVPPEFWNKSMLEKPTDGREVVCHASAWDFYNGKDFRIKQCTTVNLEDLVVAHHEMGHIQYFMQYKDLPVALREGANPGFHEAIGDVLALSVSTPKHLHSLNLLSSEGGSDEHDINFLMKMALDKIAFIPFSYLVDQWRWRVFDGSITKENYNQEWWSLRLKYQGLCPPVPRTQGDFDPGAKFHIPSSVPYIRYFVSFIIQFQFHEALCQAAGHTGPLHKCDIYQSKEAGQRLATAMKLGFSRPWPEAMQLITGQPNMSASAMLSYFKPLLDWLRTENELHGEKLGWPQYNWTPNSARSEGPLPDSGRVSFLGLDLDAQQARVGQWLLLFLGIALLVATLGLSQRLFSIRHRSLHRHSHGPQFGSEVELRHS

With `CCC[C@H](N[C@@H](C)C(=O)N1C2CCC(CC2)[C@H]1C(N)=O)C(=O)O` [Example 2, (3S)-2-{(S)-2-[(S)-1-CARBOXYBUTYLAMINO]-PROPIONYL}-3-CARBAMOYL-2-AZABICYCLO-[2.2.2]OCTANE], 50 nM corresponded to half-maximal inhibition in assay [1] (IC50).
Take `CCC[C@H](N[C@@H](C)C(=O)N1C2CCC(CC2)[C@H]1C(N)=O)C(N)=O` [Example 3, (3S)-2-{(S)-2-[(S)-1-CARBAMOYLBUTYL-AMINO]PROPIONYL}-3-CARBAMOYL-2-AZABICYCLO[2.2.2]OCTANE]: the “% Retention at 300 sec.” value in assay [2] (0.003 mg/kg I.P.) worked out at 5%; in assay [2] (0.01 mg/kg I.P.), 10%; in assay [2] (0.03 mg/kg I.P.), 35%; in assay [2] (0.1 mg/kg I.P.), 45%; in assay [2] (0.3 mg/kg I.P.), 40%; in assay [2] (1 mg/kg I.P.) it was 20%. In addition, the “% Retention at 300 sec.” value in assay [2] (3 mg/kg I.P.) was 10%. In addition, the “Latency of transit” value in assay [2] (0.003 mg/kg I.P.) stood at 108.2 s; in assay [2] (0.01 mg/kg I.P.), 119.3 s; in assay [2] (0.03 mg/kg I.P.), 166.4 s; in assay [2] (0.1 mg/kg I.P.), 171.6 s; in assay [2] (0.3 mg/kg I.P.), 182.6 s; in assay [2] (1 mg/kg I.P.), 125.2 s. Moreover, the “Latency of transit” value in assay [2] (3 mg/kg I.P.) was found to be 121.3 s.
For `CCCCCCCCOC(=O)[C@@H]1C2CCC(CC2)N1C(=O)[C@H](C)N[C@@H](CCC)C(N)=O` [Example 4, (3S)-2-{(S)-2-[(S)-1-CARBAMOYLBUTYLAMINO]PROPIONYL}-2-AZABICYCLO[2.2.2]-OCTANE-3-CARBOXYLIC ACID n-OCTYL ESTER], the “% Retention at 300 sec.” value stood at 10% in assay [2] (0.003 mg/kg I.P.); 30% in assay [2] (0.01 mg/kg I.P.); 50% in assay [2] (0.03 mg/kg I.P.); 55% in assay [2] (0.1 mg/kg I.P.); 40% in assay [2] (0.3 mg/kg I.P.); 40% in assay [2] (1 mg/kg I.P.). Moreover, in assay [2] (3 mg/kg I.P.), the “% Retention at 300 sec.” value is 5%. The “Latency of transit” value worked out at 115.6 s in assay [2] (0.003 mg/kg I.P.); 149.3 s in assay [2] (0.01 mg/kg I.P.); 205.1 s in assay [2] (0.03 mg/kg I.P.); 207.2 s in assay [2] (0.1 mg/kg I.P.); 202.1 s in assay [2] (0.3 mg/kg I.P.); 171.5 s in assay [2] (1 mg/kg I.P.). Also, the “Latency of transit” value in assay [2] (3 mg/kg I.P.) is reported as 106.7 s.
In turn, `NCCCC[C@H](N[C@@H](CCc1ccccc1)C(=O)O)C(=O)N1C2CCC(CC2)[C@H]1C(N)=O` [Example 8, (3S)-2-{(S)-2-[(S)-1-CARBOXY-3-PHENYLPROPYLAMINO]-6-AMINOHEXANOYL}-3-CARBAMOYL-2-AZABICYCLO[2.2.2]OCTANE] showed an IC50 in assay [1] of 18 nM.
Turning to `NC(=O)CN1CC(O)CC1=O` (stereo not drawn) [OXIRACETAM, oxiracetam, reference compound], the “% Retention at 300 sec.” value in assay [2] (1 mg/kg I.P.) is 10%; in assay [2] (3 mg/kg I.P.), 10%; in assay [2] (10 mg/kg I.P.), 5%; in assay [2] (30 mg/kg I.P.), 30%; in assay [2] (100 mg/kg I.P.), 40%; in assay [2] (300 mg/kg I.P.) it was 45%. In assay [2] (1000 mg/kg I.P.), the “% Retention at 300 sec.” value is recorded as 30%. In addition, the “Latency of transit” value in assay [2] (1 mg/kg I.P.) came to 97.4 s; in assay [2] (3 mg/kg I.P.), 126.5 s; in assay [2] (10 mg/kg I.P.), 115.3 s; in assay [2] (30 mg/kg I.P.) it was 150.1 s; in assay [2] (100 mg/kg I.P.) it was 182.5 s; in assay [2] (300 mg/kg I.P.), 200.2 s. The “Latency of transit” value in assay [2] (1000 mg/kg I.P.) is recorded as 175.8 s. In addition, the minimal effective dose in assay [2] (Rattus norvegicus, ip, I.P., minimal active dose, read-out: dose with protective effect (scopolamine-induced amnesia)) is ≥ 30 mg/kg.

By IC50 is commonly meant the concentration at which inhibition is half-maximal.
